# Laboratory results published in patent US20150152083A1, “Compounds and Compositions for Modulating EGFR Activity” (IRM LLC, A Delaware Limited Liability Company, priority 2012, published 2015).
# Legend:
# [1] = target: T1, EGFR (WT) (Homo sapiens, UniProt P00533); test: EGFR target modulation in engineered NIH3T3 cell lines (phospho-EGFR AlphaLISA); type: cell-based; conditions: NIH3T3 cells expressing human EGFR WT; 3 hours compound; induced with 50 ng/ml EGF
# T1 construct: host or cells: NIH3T3
# Experimental: (§1) EGFR Target Modulation in Engineered NIH3T3 Cell Lines
# (§2) NIH3T3 cell lines expressing human EGFR (WT, L858R, and L858RT790M) (obtained from Matthew Meyerson's Lab at DFCI) were maintained in 10% FBS/DMEM supplemented with 100 μg/ml Penicillin/Streptomycin (Hyclone #SV30010) and 2 μg/ml Puromycin. The cells were harvested with 0.05% Trypsin/EDTA (Hyclone #SH30236.01), re-suspended in 5% FBS/DMEM Pen/Strep without Puromycin and plated at 9,000 cells per well in 50 μl of media in a 384-well black plate with clear bottoms (Greiner #789068G). The cells were allowed to incubate overnight in a 37° C., 5% CO2 humidified tissue culture incubator. A 12-point test compound curve was prepared by serial diluting a 10 μM stock 1:3 in DMSO in a 384-well compound plate (Greiner #789201L). The serial diluted compounds were transferred to the plate containing cells by using a 50 nl Pin Head device (Perkin Elmer) and the cells were placed back in the incubator for 3 hours. Only the EGFR WT-expressing cells were induced with 50 ng/ml EGF (Preprotech #AF-100-15) for 5 minutes before lysis. The media was removed and cells were lysed in 25 μl of Lysis buffer containing protease and phosphatase inhibitors (1% Triton X-100, 20 mM Tris, pH 7.5, 1 mM EDTA, 1 mM EGTA, 150 mM NaCl, 1× complete cocktail inhibitor (Roche #11 697 498 001), 1× Phosphatase Inhibitor Cocktail Set II and Set III (Sigma #P5726 and #P0044)). The plates were shaken at 4° C. for 5 minutes with foil top at maximum speed. An aliquot of 5 μl from each well was transferred to ProxiPlate™ 384-well Plus plates (PE #6008289). The plates were sealed with a foil top and frozen at −80° C. and thawed when needed.
# (§3) The frozen aliquots were thawed and briefly centrifuged. All antibodies and beads were diluted in 1× AlphaLISA HiBlock Buffer (PE #AL004C). Biotinylated anti-phospho-EGFR (Y1068) (Cell Signaling #4031) was incubated with the lysate for 1 hour at room temperature at 1 nM final concentration. Goat anti-total EGFR (R&D Systems #AF231) was added and allowed to equilibrate for 1 hour at room temperature at 1 nM final concentration. Then, 10 μl of mixed beads (AlphaScreen Streptavidin Donor Beads (PE #6760002S) and AlphaLISA anti-goat IgG Acceptor Beads (PE #AL107C)) was equilibrated for 1.5 hours before reading on EnVision plate reader using the built-in settings for AlphaScreen.
# (§4) Cells untreated (L858R and L858RT790M) or EGF-induced (WT) were set to 100% maximum response. For a negative control, 10 μM HKI-272 was used to normalize data to 0% of maximum response. With these parameters, the IC50's for each compound in each cell line was calculated using non-linear curve fitting analysis.
# [2] = target: T2, EGFR (L858R) (Homo sapiens, UniProt P00533, L858R); test: as above; type: cell-based; conditions: NIH3T3 cells expressing human EGFR L858R; 3 hours compound
# T2 construct: host or cells: NIH3T3
# Experimental: as §1, §2, §3, §4
# [3] = target: T3, EGFR(L858R/T790M) (Homo sapiens, UniProt P00533, L858R/T790M); test: as above; type: cell-based; design: host or cells: NIH3T3; conditions: NIH3T3 cells expressing human EGFR L858R/T790M; 3 hours compound
# Experimental: as §1, §2, §3, §4
# Target sequence in this assay (P00533 25-1210 T790M/L858R): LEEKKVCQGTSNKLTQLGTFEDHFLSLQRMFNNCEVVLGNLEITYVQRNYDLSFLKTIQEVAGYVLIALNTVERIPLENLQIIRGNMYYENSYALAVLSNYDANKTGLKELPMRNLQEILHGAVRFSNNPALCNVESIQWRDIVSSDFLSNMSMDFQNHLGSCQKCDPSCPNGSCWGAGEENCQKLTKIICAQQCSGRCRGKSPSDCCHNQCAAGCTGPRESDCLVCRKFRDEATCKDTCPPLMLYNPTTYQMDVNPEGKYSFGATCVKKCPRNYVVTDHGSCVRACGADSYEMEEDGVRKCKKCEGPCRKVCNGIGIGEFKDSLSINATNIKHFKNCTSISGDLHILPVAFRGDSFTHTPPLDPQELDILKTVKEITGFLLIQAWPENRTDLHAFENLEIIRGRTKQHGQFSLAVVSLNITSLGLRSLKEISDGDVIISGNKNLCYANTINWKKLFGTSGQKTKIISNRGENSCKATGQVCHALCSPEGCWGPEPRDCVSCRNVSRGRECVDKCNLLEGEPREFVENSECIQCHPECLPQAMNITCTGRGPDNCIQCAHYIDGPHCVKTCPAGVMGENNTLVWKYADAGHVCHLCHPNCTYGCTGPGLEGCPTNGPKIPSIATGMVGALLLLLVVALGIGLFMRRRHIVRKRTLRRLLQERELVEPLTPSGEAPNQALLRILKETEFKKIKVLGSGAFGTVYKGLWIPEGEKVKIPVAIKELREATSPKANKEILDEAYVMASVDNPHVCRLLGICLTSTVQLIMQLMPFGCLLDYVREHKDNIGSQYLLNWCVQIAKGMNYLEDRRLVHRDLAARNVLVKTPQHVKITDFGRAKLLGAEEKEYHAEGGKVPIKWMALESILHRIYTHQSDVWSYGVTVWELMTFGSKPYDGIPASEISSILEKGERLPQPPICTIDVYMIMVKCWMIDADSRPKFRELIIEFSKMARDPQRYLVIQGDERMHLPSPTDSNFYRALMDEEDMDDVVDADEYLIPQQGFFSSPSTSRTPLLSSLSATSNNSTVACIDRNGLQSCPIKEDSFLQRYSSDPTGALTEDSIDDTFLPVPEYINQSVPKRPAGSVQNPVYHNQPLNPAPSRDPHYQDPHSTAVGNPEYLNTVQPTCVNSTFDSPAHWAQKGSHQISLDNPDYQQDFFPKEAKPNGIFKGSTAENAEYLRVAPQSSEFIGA
# [4] = target: T3, EGFR(L858R/T790M); test: EGFR biochemical assay (HTRF), IC50 determination; design: purchased from Carna (GST-a.a. 669-1210); purchased Carna; conditions: 10 μM ATP
# Experimental: All EGFR biochemical assays were carried out by HTRF method. The EGFR(L858RT790M) enzyme were purchased from Carna (GST-a.a. 669-1210). The substrate peptide Biotin-TK-peptide was purchased from Cis-Bio. The reaction mixtures contained 1 μM peptide substrate, 10 μM ATP, and 0.036 nM EGFR(L858RT790M) in the reaction buffer (50 mM HEPES pH 7.1, 10 mM MgCl2, 0.01% BSA, 1 mM TCEP and 0.1 mM Na3VO4) at a final volume of 10 μL. All reactions were carried out at room temperature in white ProxiPlate™ 384-well Plus plates (PerkinElmer) and were quenched with 5 μL of 0.2 M EDTA at 60 min Five μL of the detection reagents (2.5 ng PT66K and 0.05 μg SAXL per well) were added, the plates were incubated at room temperature for 1 h and then read in EnVision reader. […] For no-preincubation condition, the compounds were added to the assay solution containing ATP and peptide, and the reaction was initiated by addition of enzyme. For pre-incubation conditions, the compounds were added to the assay solution containing enzyme and peptide, and pre-incubated at room temperature for desired period of time, then the reaction was initiated by addition of ATP.
# Target sequence in this assay (P00533 669-1210 T790M/L858R): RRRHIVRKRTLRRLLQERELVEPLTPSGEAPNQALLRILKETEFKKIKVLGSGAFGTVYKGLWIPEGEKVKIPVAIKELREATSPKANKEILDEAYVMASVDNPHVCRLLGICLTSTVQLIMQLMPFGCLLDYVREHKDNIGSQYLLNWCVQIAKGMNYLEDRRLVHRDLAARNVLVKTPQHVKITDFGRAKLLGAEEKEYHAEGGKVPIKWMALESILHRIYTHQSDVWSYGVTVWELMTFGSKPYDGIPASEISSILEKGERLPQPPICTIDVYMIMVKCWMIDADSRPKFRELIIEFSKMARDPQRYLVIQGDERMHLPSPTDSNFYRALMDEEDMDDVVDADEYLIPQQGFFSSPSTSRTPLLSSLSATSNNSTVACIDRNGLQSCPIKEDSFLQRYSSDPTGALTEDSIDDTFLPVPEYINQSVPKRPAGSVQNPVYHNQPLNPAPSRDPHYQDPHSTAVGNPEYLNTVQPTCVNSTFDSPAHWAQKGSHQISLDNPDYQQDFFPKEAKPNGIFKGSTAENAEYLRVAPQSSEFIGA
# [5] = EGFR (L858R/T790M) IC50 (μM) 90 min pre-incubation, 90 min pre-incubation
# [6] = no pre-incubation, read-out: EGFR (L858R/T790M) IC50 (μM) No pre-incubation
# T1 sequence (P00533 25-1210): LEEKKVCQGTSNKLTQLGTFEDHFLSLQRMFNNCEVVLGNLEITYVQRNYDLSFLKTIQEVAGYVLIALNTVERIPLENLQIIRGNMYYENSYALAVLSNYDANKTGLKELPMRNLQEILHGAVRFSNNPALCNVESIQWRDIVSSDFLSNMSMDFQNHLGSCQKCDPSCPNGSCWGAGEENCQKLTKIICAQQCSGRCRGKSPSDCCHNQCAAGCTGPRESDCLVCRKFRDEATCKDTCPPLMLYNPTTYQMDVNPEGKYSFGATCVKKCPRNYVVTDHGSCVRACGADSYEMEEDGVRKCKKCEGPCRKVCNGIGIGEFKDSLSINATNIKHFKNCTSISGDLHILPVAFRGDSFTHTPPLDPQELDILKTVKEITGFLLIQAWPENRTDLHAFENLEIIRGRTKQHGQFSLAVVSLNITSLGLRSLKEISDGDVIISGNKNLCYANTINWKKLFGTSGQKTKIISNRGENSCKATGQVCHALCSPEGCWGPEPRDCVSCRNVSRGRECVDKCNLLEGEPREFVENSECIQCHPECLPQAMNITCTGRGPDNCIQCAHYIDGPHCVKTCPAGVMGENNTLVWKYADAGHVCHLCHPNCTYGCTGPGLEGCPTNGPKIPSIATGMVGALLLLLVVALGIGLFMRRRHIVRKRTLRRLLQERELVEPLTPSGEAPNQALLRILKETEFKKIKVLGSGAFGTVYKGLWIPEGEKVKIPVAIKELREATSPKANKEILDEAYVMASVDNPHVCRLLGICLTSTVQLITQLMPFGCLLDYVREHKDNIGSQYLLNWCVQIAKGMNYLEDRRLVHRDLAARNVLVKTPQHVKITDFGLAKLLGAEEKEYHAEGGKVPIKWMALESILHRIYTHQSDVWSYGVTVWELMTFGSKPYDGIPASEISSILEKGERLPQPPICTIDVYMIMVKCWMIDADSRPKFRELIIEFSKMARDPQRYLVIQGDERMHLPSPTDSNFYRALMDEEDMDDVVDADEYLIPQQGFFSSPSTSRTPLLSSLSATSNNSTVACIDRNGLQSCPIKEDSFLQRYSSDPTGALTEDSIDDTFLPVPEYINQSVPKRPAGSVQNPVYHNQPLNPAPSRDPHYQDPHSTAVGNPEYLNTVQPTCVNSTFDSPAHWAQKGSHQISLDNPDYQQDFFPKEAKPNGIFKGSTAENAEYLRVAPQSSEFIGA
# T2 sequence (P00533 25-1210 L858R): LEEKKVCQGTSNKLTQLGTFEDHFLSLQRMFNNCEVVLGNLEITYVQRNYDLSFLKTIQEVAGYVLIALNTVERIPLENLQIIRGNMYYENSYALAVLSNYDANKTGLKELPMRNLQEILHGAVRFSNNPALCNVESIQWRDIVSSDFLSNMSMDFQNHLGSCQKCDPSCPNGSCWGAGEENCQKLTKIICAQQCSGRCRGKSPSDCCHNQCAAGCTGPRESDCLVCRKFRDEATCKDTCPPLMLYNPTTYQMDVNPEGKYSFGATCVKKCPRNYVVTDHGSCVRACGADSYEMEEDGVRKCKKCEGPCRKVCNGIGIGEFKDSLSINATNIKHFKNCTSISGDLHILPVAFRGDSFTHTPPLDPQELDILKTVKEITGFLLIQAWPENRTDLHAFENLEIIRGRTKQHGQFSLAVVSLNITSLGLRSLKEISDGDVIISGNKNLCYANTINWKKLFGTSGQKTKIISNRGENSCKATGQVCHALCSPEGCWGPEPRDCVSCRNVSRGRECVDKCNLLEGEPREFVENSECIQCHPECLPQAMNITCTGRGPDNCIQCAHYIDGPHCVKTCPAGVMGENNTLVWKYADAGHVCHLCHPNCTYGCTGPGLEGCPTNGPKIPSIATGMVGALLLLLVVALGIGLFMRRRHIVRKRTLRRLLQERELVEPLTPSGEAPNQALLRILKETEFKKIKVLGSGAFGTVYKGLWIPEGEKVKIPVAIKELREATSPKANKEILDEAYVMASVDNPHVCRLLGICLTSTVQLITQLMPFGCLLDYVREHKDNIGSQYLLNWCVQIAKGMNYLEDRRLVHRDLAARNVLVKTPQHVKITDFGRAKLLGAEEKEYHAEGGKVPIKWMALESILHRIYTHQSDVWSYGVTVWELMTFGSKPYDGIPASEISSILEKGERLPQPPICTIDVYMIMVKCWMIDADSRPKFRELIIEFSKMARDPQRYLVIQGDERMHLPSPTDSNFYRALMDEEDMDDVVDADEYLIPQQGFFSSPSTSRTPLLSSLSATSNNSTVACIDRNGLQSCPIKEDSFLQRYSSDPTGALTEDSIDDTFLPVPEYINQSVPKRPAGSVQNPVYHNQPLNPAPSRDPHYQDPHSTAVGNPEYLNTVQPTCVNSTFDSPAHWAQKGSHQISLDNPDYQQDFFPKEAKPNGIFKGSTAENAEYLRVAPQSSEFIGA
IC50 [1] [µM],IC50 [2] [µM],IC50 [3] [µM],"IC50 [4, 5] [µM]","IC50 [4, 6] [µM]",SMILES
> 10,0.54,0.041,–,–,"C=CC(=O)N[C@@H]1CCC[C@H](n2c(NC(=O)c3cccc(C(F)(F)F)c3)nc3cc(C)ccc32)C1 (racemic) [Example 8-1, N-{5-methyl-1-[(1S,3R)-3-(prop-2-enamido)cyclohexyl]-1H-1,3-benzodiazol-2-yl}-3-(trifluoromethyl)benzamide]"
–,–,–,0.15,0.72,"C=CC(=O)NC1CCC(n2c(NC(=O)c3cccc(C(F)(F)F)c3)nc3cc(C)ccc32)C1 (racemic) [Example 8-3, N-{5-methyl-1-[3-(prop-2-enamido)cyclopentyl]-1H-1,3-benzodiazol-2-yl}-3-(trifluoromethyl)benzamide]"
–,–,–,0.15,1.04,"C=CC(=O)Nc1ccc(-n2c(NC(=O)c3cccc(C(F)(F)F)c3)nc3cc(C)ccc32)cc1 [Example 2-11, N-{5-methyl-1-[4-(prop-2-enamido)phenyl]-1H-1,3-benzodiazol-2-yl}-3-(trifluoromethyl)benzamide]"
–,–,–,0.1,1.8,"C=CC(=O)Nc1ccccc1-n1c(NC(=O)c2cccc(C(F)(F)F)c2)nc2cc(C)ccc21 [Example 2-12, N-{5-methyl-1-[2-(prop-2-enamido)phenyl]-1H-1,3-benzodiazol-2-yl}-3-(trifluoromethyl)benzamide]"
–,–,–,0.101,0.36,"C/C=C/C(=O)Nc1cccc(-n2c(NC(=O)c3cccc(C(F)(F)F)c3)nc3cc(C)ccc32)c1 [Example 2-14, N-{1-[3-(but-2-enamido)phenyl]-5-methyl-1H-1,3-benzodiazol-2-yl}-3-(trifluoromethyl)benzamide]"
–,–,–,1.06,20,"Cc1cc(C(=O)Nc2nc3cccc(Cl)c3n2-c2cc(NC(=O)/C=C/CN(C)C)ccc2C)ccn1 [Example 2-15, (E)-N-(7-chloro-1-(5-(4-(dimethylamino)but-2-enamido)-2-methylphenyl)-1H-benzo[d]imidazol-2-yl)-2-methylisonicotinamide]"
–,–,–,1.07,9.38,"C=CC(=O)Nc1ccc(C)c(-n2c(NC(=O)c3ccnc(C)c3)nc3cccc(Cl)c32)c1 [Example 2-16, N-(1-(5-acrylamido-2-methylphenyl)-7-chloro-1H-benzo[d]imidazol-2-yl)-2-methylisonicotinamide]"
–,–,–,0.006,0.065,"C=CC(=O)Nc1cc(-n2c(NC(=O)c3ccnc(C)c3)nc3cccc(Cl)c32)ccc1C [Example 2-17, N-(1-(3-acrylamido-4-methylphenyl)-7-chloro-1H-benzo[d]imidazol-2-yl)-2-methylisonicotinamide]"
–,–,–,0.046,0.627,"C=CC(=O)Nc1cc(C)cc(-n2c(NC(=O)c3ccnc(C)c3)nc3cccc(Cl)c32)c1 [Example 2-18, N-(1-(3-acrylamido-5-methylphenyl)-7-chloro-1H-benzo[d]imidazol-2-yl)-2-methylisonicotinamide]"
–,–,–,0.82,2.64,"C=CC(=O)NCCn1c(NC(=O)c2cccc(C(F)(F)F)c2)nc2cc(C)ccc21 [Example 8-5, N-{5-methyl-1-[2-(prop-2-enamido)ethyl]-1H-1,3-benzodiazol-2-yl}-3-(trifluoromethyl)benzamide]"
–,–,–,0.079,> 50,"C=CC(=O)N[C@H]1CCCCC1n1c(NC(=O)c2cccc(C(F)(F)F)c2)nc2cc(C)ccc21 (stereo partly drawn) [Example 8-6, N-{5-methyl-1-[(1R,25)-2-(prop-2-enamido)cyclohexyl]-1H-1,3-benzodiazol-2-yl}-3-(trifluoromethyl)benzamide]"
–,–,–,0.31,2.3,"C=CC(=O)N[C@@H]1CCCC[C@H]1n1c(NC(=O)c2cccc(C(F)(F)F)c2)nc2cc(C)ccc21 [Example 8-7, N-{5-methyl-1-[(1R,2R)-2-(prop-2-enamido)cyclohexyl]-1H-1,3-benzodiazol-2-yl}-3-(trifluoromethyl)benzamide]"
–,–,–,0.21,0.46,"C=CC(=O)N[C@H]1CC[C@@H](n2c(NC(=O)c3cccc(C(F)(F)F)c3)nc3cc(C)ccc32)CC1 [Example 8-8, N-{5-methyl-1-[(1S,4S)-4-(prop-2-enamido)cyclohexyl]-1H-1,3-benzodiazol-2-yl}-3-(trifluoromethyl)benzamide]"
–,–,–,0.57,0.22,"C=CC(=O)N[C@H]1CC[C@H](n2c(NC(=O)c3cccc(C(F)(F)F)c3)nc3cc(C)ccc32)CC1 [Example 8-9, N-{5-methyl-1-[(1R,4R)-4-(prop-2-enamido)cyclohexyl]-1H-1,3-benzodiazol-2-yl}-3-(trifluoromethyl)benzamide]"

# The remaining lines, values behind:
SMILES,IC50 [1] [µM],IC50 [2] [µM],IC50 [3] [µM],"IC50 [4, 5] [µM]","IC50 [4, 6] [µM]"
"C=CC(=O)N[C@H]1CCCC(n2c(NC(=O)c3cccc(C(F)(F)F)c3)nc3cccc(C)c32)C1 (mixture of isomers) [Example 6, trans-N-(1-(3-acrylamidocyclohexyl)-7-methyl-1H-benzo[d]imidazol-2-yl)-3-(trifluoromethyl)benzamide]",> 10,0.69,0.14,0.009,0.18
"C=CC(=O)N[C@@H]1CCC[C@H](n2c(NC(=O)c3cccc(C(F)(F)F)c3)nc3cccc(C)c32)C1 (racemic) [Example 7, cis-N-(1-(3-acrylamidocyclohexyl)-7-methyl-1H-benzo[d]imidazol-2-yl)-3-(trifluoromethyl)benzamide]",> 10,0.28,0.037,0.002,0.039
"C=CC(=O)N[C@H]1CC[C@@H](n2c(NC(=O)c3cccc(C(F)(F)F)c3)nc3cc(C)ccc32)C1 (single isomer, unassigned) [Example 9-1A]",–,–,–,0.08,0.75
"C=CC(=O)N[C@@H]1CC[C@H](n2c(NC(=O)c3cccc(C(F)(F)F)c3)nc3cc(C)ccc32)C1 (single isomer, unassigned) [Example 9-1B]",–,–,–,0.15,0.29
"C=CC(=O)N[C@H]1CCC[C@@H](n2c(NC(=O)c3cccc(C(F)(F)F)c3)nc3cc(C)ccc32)C1 (single isomer, unassigned) [Example 9-2A]",> 10,0.54,0.032,–,–
"C=CC(=O)N[C@@H]1CCC[C@H](n2c(NC(=O)c3cccc(C(F)(F)F)c3)nc3cc(C)ccc32)C1 (single isomer, unassigned) [Example 9-2B]",> 10,> 10,0.4,–,–
